Reference: PubChem BioAssay (NCI)
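Values below derive from 48-hour exposures of cells grown in 96-well plates, with endpoints linearly interpolated between the two concentrations bracketing the appropriate inhibition level. GI50: concentration for 50% inhibition of growth. TGI: total growth inhibition.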

How the values were obtained:
Assay in all cases: DTP human tumour cell line panel, 48 h
[1] = tested on: NCI-H226 lung
[2] = tested on: HS 578T breast
[3] = tested on: M14 melanoma
[4] = tested on: BT-549 breast
[5] = tested on: NCI-H522 lung
[6] = tested on: KM12 colon
[7] = tested on: MDA-N
[8] = tested on: HCT-116 colon
[9] = tested on: A549 NSCLC
[10] = tested on: TK-10 renal
[11] = tested on: RXF 393 renal
[12] = tested on: 786-0 renal
[13] = tested on: PC-3 prostate
[14] = tested on: SF-268 CNS

| Structure (SMILES) | GI50 [1] [µM] | TGI [1] [µM] | GI50 [2] [µM] | TGI [2] [µM] | GI50 [3] [µM] | TGI [3] [µM] | GI50 [4] [µM] | TGI [4] [µM] | TGI [5] [µM] | TGI [6] [µM] | TGI [7] [µM] | TGI [8] [µM] | TGI [9] [µM] | TGI [10] [µM] | TGI [11] [µM] | TGI [12] [µM] | TGI [13] [µM] | TGI [14] [µM] | GI50 [9] [µM] | GI50 [14] [µM] |
| --- | --- | --- | --- | --- | --- | --- | --- | --- | --- | --- | --- | --- | --- | --- | --- | --- | --- | --- | --- | --- |
| CCCCCCCCCCCCCCCCCCOc1ccccc1CC(=O)OCC[N+]1(C)CCCCC1 | 2.18 | 6.25 | 2.32 | 6.53 | 2.52 | 6.58 | 2.65 | 7.1 |  |  |  |  |  |  |  |  |  |  |  |  |
| CN(CCCCCl)P(=O)(OCc1ccc([N+](=O)[O-])o1)OC[C@H]1O[C@@H](n2cc(F)c(=O)[nH]c2=O)C[C@@H]1O (some centres undefined) |  | > 86.6 |  | 8.68 |  | 20 |  | 49.1 | 19.5 | 28.7 | 33.3 | > 43.8 | > 26.4 | > 79.8 | 17.4 | > 80.1 | > 56.1 | 13.2 |  |  |
| CN1CCc2[nH]c3ccccc3c2C1 |  | > 100 |  |  |  |  |  |  | > 100 | > 100 |  | > 100 | > 100 |  | > 100 |  |  | > 100 |  |  |
| CC(CCN)(CCN)[N+](=O)[O-] |  | > 100 |  | > 100 |  | > 100 |  | > 100 | > 100 | > 100 | > 100 | > 100 | > 100 | > 100 | > 100 | > 100 | > 100 | > 100 |  |  |
| NN(CC(=O)O)CC(=O)O |  | > 100 |  | > 100 |  | > 100 |  | > 100 | > 100 | > 100 | > 100 | > 100 | > 100 | > 100 |  | > 100 | > 100 | > 100 |  |  |
| O=C([O-])C[n+]1ccccc1 |  | > 100 |  | > 100 |  | > 100 |  | > 100 | > 100 | > 100 | > 100 | > 100 | > 100 | > 100 | > 100 | > 100 | > 100 | > 100 |  |  |
| C[C@]12C=CC(=O)C=C1CC[C@@H]1[C@@H]2CC[C@]2(C)OC(=O)CC[C@@H]12 |  | > 493 |  | > 500 |  | > 500 |  | > 500 | 457 | > 500 | > 500 | > 482 | 478 | > 500 | > 485 | > 500 | > 500 | > 500 |  |  |
| COc1cc2c(c(O)c1OC)-c1c(cc(OC)c(OC)c1OC)CC(C)C(C)C2 (centres undefined) |  | > 100 |  | > 100 |  | > 100 |  | > 100 | > 100 | > 100 | > 100 | > 100 | > 100 | > 100 | > 100 | > 100 | > 100 | > 100 |  |  |
| Nc1ncnc2c1ncn2C=C=CCO |  | > 100 |  | > 100 |  | > 100 |  | > 100 |  | > 100 |  | > 100 |  | > 100 | > 100 |  | > 100 |  |  |  |
| COCCOC(=O)c1c(C)n([O-])c2cc(Cl)c(Cl)cc2[n+]1=O |  |  |  | > 100 |  | 41.9 |  | 67.1 | 54.6 | 25.7 | > 100 |  | 35.7 | 98.3 | > 100 | 85.1 | > 100 | 59.1 |  |  |
| C=C1c2ccccc2C(=O)c2c1c1c(C(=O)OC)c(O)ccc1n2Cc1ccccc1 |  |  |  | 1.73 |  | 1.03 |  | 1.69 | 0.795 | 1.7 | 1.55 | 1.43 | 3.6 | 1.55 | 0.976 | 0.525 | 1.56 | 0.518 |  |  |
| O=C(Nc1ccc(Cl)cc1)c1cc2cc(N=Nc3ccccc3Cl)ccc2oc1=O |  | 46.9 |  |  |  | 55 |  |  | 53.2 |  |  | 23.3 | > 100 | 89.4 | > 100 |  |  | > 100 |  |  |
| Nc1ncnc2nc[nH]c12 |  | > 250 |  |  |  |  |  |  | 220 | > 158 |  | > 250 | > 250 |  | 88 |  |  | > 250 | 75.6 | 143 |
